Experimental data: patent publication EP0307553B1, “Modified splenopentines, their process of preparation and their use” (priority 1987, dated 1989)

Legend:
Milzzellen/Ratte = assay: Radioligand binding study, rat spleen cells
[1] = test system: HIV-infizierten Patienten; assay: Therapy of HIV-infected patients
[2] = test system: Knochenmark-stammzellen von C57 Bl-Mäusen; assay: Colony formation test: mouse bone marrow stem cells co-cultured with human leukocytes in agar; format: cell-based; settings: without DAc-SP5 = 100 %
[3] = test system: Monocyten bzw. Lymphocytensubpopulationen; assay: Cytofluorimetric quantification of monocytes and lymphocyte subpopulations in a patient with secondary immunodeficiency; format: in vivo, Patientin; settings: for DR^+-Monocyten (Gpt/l): before treatment 0,02, normal 0 -0,6; for CD 4 (Gpt/l): before treatment 0,03, normal 0,6 - 1,3; for CD 3 (Gpt/l): before treatment 0,04, normal 1,0 - 2,0; for Lymphocyten (Gpt/l): before treatment 0,28, normal 1,5 - 3,5; for CD 4/ CD 8: before treatment 0,58, normal 1,5 - 3,0; for DR^+-Monocyten (%): before treatment 16, normal 65 - 90
männlichen Balb/c-Mäusen = assay: Chronic alcohol intoxication: parameters of the immune system; format: in vivo, Mäuse; settings: 5x daily before test, n=40
[4] = Histopathological lung changes after infection, hamster; format: in vivo, syrischen Hamster; settings: Hamster (TCID₅₀ = 2 x 10^3,5)
NMRI-Mäuse [5] = assay: Antigen-specific IgM response against sheep erythrocytes in normal mice (Jerne plaque test, Fig. 1); format: in vivo; settings: 3x at 24 h intervals, 0,5 mg/kg, independent of route of application
Text: (§1) Der Einfluß von DAc-SP5 und immunsuppressiv wirkenden Verbindungen auf die Antigen-spezifische IgM-Antwort bei Mäusen wurde untersucht. Die erhaltenen Ergebnisse sind in den Fig.1 und 2 dargestellt.
Tiere: männliche NMRI-Mäuse (Koloniezucht) im Alter von 2-2,5 Monaten. Methodik des Jerne-Plaquetests entsprechend R. Eckert und G. Pasternak, Acta biol. med. germ. 31: 127-137 (1973), n= 16 (NaCl-Kontrolle), n= 8 (DAc-SP5-Versuche).

NMRI-Mäuse [6] = assay: Chemically induced suppression of the humoral immune response (cyclophosphamide, dexamethasone; Fig. 2); format: in vivo
Text: as §1
DAc-SP5 rekonstituiert bereits durch wenige aufeinanderfolgende Applikationen die chemisch induzierts Suppression der humoralen Immunantwort.

Coxsackievirus B4 = assay: Histologically confirmed pancreatitis after Coxsackievirus infection; format: in vivo, Balb/c-Mäuse
[7] = Histopathological lung changes after infection, mouse; format: in vivo, Maus (Balb/c); settings: Maus (TCID = 10^3,5)
[8] = HIV-infected patients (Tab. 6.1.)
[9] = 15 % Ethanol over 1,5 months + 0,1 mg DAc-SP5 i.p.
[10] = no Ethanol, 0,1 mg DAc-SP5 i.p.
[11] = therapy before infection: 0,5 mg/kg s.c. 3 x per week during 2 weeks before infection
[12] = therapy during infection: 0,5 mg/kg s.c. daily over 5 days from day of infection

Substance: ³H-Splenopentin [³H-SP5]
- Radioligand-Dissoziationskonstante (KD, M) (Milzzellen/Ratte): keine verdrängbare Bindung

Substance: (N^α-Acetyl-arginyl)(N^ε-acetyl-lysyl)glutamylvalyltyrosin [DAc-SP5]
- CD4⁺/CD8⁺-Verhältnisses [1, 8]: Verbesserung
- Gesamtlymphocytenzahl [1, 8]: Anhebung der Gesamtlymphocytenzahl in den Kontrollbereich
- Nebenwirkungen ([1]; HIV-infected patients, after 16 weeks of therapy): keine Nebenwirkungen
- Zell-"Kolonien" pro 10^5 Knochenmarkzellen, Prozentuale Angabe ([2]; leukocytes of Kontroll-personen, Exp. A, 1 µg DAc-SP5 per 1 ml agar): 99%
- Zell-"Kolonien" pro 10^5 Knochenmarkzellen, Prozentuale Angabe ([2]; leukocytes of Kontroll-personen, Exp. A, 2 µg DAc-SP5 per 1 ml agar): 98%
- Zell-"Kolonien" pro 10^5 Knochenmarkzellen, Prozentuale Angabe ([2]; leukocytes of Kontroll-personen, Exp. A, 10 µg DAc-SP5 per 1 ml agar): 114%
- Zell-"Kolonien" pro 10^5 Knochenmarkzellen, Prozentuale Angabe ([2]; leukocytes of Kontroll-personen, Exp. A, 20 µg DAc-SP5 per 1 ml agar): 125%
- Zell-"Kolonien" pro 10^5 Knochenmarkzellen, Prozentuale Angabe ([2]; leukocytes of Kontroll-personen, Exp. B, 1 µg DAc-SP5 per 1 ml agar): 135%
- Zell-"Kolonien" pro 10^5 Knochenmarkzellen, Prozentuale Angabe ([2]; leukocytes of Kontroll-personen, Exp. B, 2 µg DAc-SP5 per 1 ml agar): 136%
- Zell-"Kolonien" pro 10^5 Knochenmarkzellen, Prozentuale Angabe ([2]; leukocytes of Kontroll-personen, Exp. B, 10 µg DAc-SP5 per 1 ml agar): 147%
- Zell-"Kolonien" pro 10^5 Knochenmarkzellen, Prozentuale Angabe ([2]; leukocytes of Kontroll-personen, Exp. B, 20 µg DAc-SP5 per 1 ml agar): 137%
- Zell-"Kolonien" pro 10^5 Knochenmarkzellen, Prozentuale Angabe ([2]; leukocytes of Patienten (Systemischer Lupus Erythe-matodes), Exp. A, 1 µg DAc-SP5 per 1 ml agar): 180%
- Zell-"Kolonien" pro 10^5 Knochenmarkzellen, Prozentuale Angabe ([2]; leukocytes of Patienten (Systemischer Lupus Erythe-matodes), Exp. A, 2 µg DAc-SP5 per 1 ml agar): 316%
- Zell-"Kolonien" pro 10^5 Knochenmarkzellen, Prozentuale Angabe ([2]; leukocytes of Patienten (Systemischer Lupus Erythe-matodes), Exp. A, 10 µg DAc-SP5 per 1 ml agar): 270%
- Zell-"Kolonien" pro 10^5 Knochenmarkzellen, Prozentuale Angabe ([2]; leukocytes of Patienten (Systemischer Lupus Erythe-matodes), Exp. A, 20 µg DAc-SP5 per 1 ml agar): 256%
- Zell-"Kolonien" pro 10^5 Knochenmarkzellen, Prozentuale Angabe ([2]; leukocytes of Patienten (Systemischer Lupus Erythe-matodes), Exp. B, 2 µg DAc-SP5 per 1 ml agar): 873%
- Zell-"Kolonien" pro 10^5 Knochenmarkzellen, Prozentuale Angabe ([2]; leukocytes of Patienten (Systemischer Lupus Erythe-matodes), Exp. B, 10 µg DAc-SP5 per 1 ml agar): 642%
- Zell-"Kolonien" pro 10^5 Knochenmarkzellen, Prozentuale Angabe ([2]; leukocytes of Patienten (Systemischer Lupus Erythe-matodes), Exp. B, 20 µg DAc-SP5 per 1 ml agar): 438%
- DR^+-Monocyten (Gpt/l) ([3]; 2 weeks of therapy): 0,08 Gpt/l
- CD 4 (Gpt/l) ([3]; 2 weeks of therapy): 0,29 Gpt/l
- CD 3 (Gpt/l) ([3]; 2 weeks of therapy): 0,39 Gpt/l
- Lymphocyten (Gpt/l) ([3]; 2 weeks of therapy): 0,84 Gpt/l
- CD 4/ CD 8 ([3]; 2 weeks of therapy): 2,3
- DR^+-Monocyten (%) ([3]; 2 weeks of therapy): 22%
- DR^+-Monocyten (Gpt/l) ([3]; 3 weeks of therapy): 0,26 Gpt/l
- CD 4 (Gpt/l) ([3]; 3 weeks of therapy): 0,34 Gpt/l
- CD 3 (Gpt/l) ([3]; 3 weeks of therapy): 0,55 Gpt/l
- Lymphocyten (Gpt/l) ([3]; 3 weeks of therapy): 0,74 Gpt/l
- CD 4/ CD 8 ([3]; 3 weeks of therapy): 2,2
- DR^+-Monocyten (%) ([3]; 3 weeks of therapy): 62%
- DR^+-Monocyten (Gpt/l) ([3]; 4 weeks of therapy): 0,60 Gpt/l
- CD 4 (Gpt/l) ([3]; 4 weeks of therapy): 0,38 Gpt/l
- CD 3 (Gpt/l) ([3]; 4 weeks of therapy): 0,67 Gpt/l
- Lymphocyten (Gpt/l) ([3]; 4 weeks of therapy): 0,83 Gpt/l
- CD 4/ CD 8 ([3]; 4 weeks of therapy): 2,4
- DR^+-Monocyten (%) ([3]; 4 weeks of therapy): 72%
- % phagocytierende Peritonealzellen (männlichen Balb/c-Mäusen; [9]): 47,5±1,7%
- Milzmasse (mg) (männlichen Balb/c-Mäusen; [9]): 82,0±5,6 mg
- Phagocytoseindex (männlichen Balb/c-Mäusen; [9]): 4,5±0,1
- Plaque-bildende Zellen der Milz pro 10⁶ Zellen (Jerne-Plaquetest) (männlichen Balb/c-Mäusen; [9]): 214,3±5,9 pro 10⁶ Zellen
- Thymusmasse (mg) (männlichen Balb/c-Mäusen; [9]): 29,0±2,2 mg
- % phagocytierende Peritonealzellen (männlichen Balb/c-Mäusen; [10]): 75,0±2,6%
- Milzmasse (mg) (männlichen Balb/c-Mäusen; [10]): 95,0±7,1 mg
- Phagocytoseindex (männlichen Balb/c-Mäusen; [10]): 4,9±0,15
- Plaque-bildende Zellen der Milz pro 10⁶ Zellen (Jerne-Plaquetest) (männlichen Balb/c-Mäusen; [10]): 285,0±11,3 pro 10⁶ Zellen
- Thymusmasse (mg) (männlichen Balb/c-Mäusen; [10]): 40,0±3,0 mg
- Anzahl der Tiere mit histopathologischem Lungenbefund (%) [4, 11]: 100%
- Anzahl der Tiere mit histopathologischem Lungenbefund (%) [4, 12]: 10%
- Stärke und Kinetik der IgM-Antwort von Mäusen gegen Schafserythrocyten (NMRI-Mäuse [5]): keinen siknifikanten Einfluß
- Suppression der Antigen-spezifischen IgM-Antwort nach Cyclophosphamid (NMRI-Mäuse [6]; Cyclophosphamid 7,2 mg/Tier i. p. once, DAc-SP5 0,5 mg/kg s. c. on the 4 following days): teilweise rekonstituiert
- Reduktion der Antigen-spezifischen IgM-Antwort durch Dexamethason (NMRI-Mäuse [6]; Dexamethason 0,2 or 0,08 mg/Tier i. p., DAc-SP5 0,5 mg/kg s. c. on the two following days): vollständig rekonstituiert
- Tiere mit Pankreatitis (in %, n = 10-15) (Coxsackievirus B4; Infektionsdosis (TCID₅₀) 10³, therapy during infection: 0,5 mg/kg s.c. daily over 5 days from day of infection): 0%
- Tiere mit Pankreatitis (in %, n = 10-15) (Coxsackievirus B4; Infektionsdosis (TCID₅₀) 10⁴, therapy before infection: 0,5 mg/kg s.c. 3 x per week during 2 weeks before infection): 80%
- Tiere mit Pankreatitis (in %, n = 10-15) (Coxsackievirus B4; Infektionsdosis (TCID₅₀) 10⁴, therapy during infection: 0,5 mg/kg s.c. daily over 5 days from day of infection): 0%
- Tiere mit Pankreatitis (in %, n = 10-15) (Coxsackievirus B4; Infektionsdosis (TCID₅₀) 10⁵, therapy before infection: 0,5 mg/kg s.c. 3 x per week during 2 weeks before infection): 100%
- Tiere mit Pankreatitis (in %, n = 10-15) (Coxsackievirus B4; Infektionsdosis (TCID₅₀) 10⁵, therapy during infection: 0,5 mg/kg s.c. daily over 5 days from day of infection): 60%
- Tiere mit Pankreatitis (in %, n = 10-15) (Coxsackievirus B4; Infektionsdosis (TCID₅₀) 10⁶, therapy before infection: 0,5 mg/kg s.c. 3 x per week during 2 weeks before infection): 100%
- Tiere mit Pankreatitis (in %, n = 10-15) (Coxsackievirus B4; Infektionsdosis (TCID₅₀) 10⁶, therapy during infection: 0,5 mg/kg s.c. daily over 5 days from day of infection): 100%
- Anzahl der Tiere mit histopathologischem Lungenbefund (%) [7, 11]: 100%
- Anzahl der Tiere mit histopathologischem Lungenbefund (%) [7, 12]: 0%
